A short description of data set [1]: Stability of the solid forms (net increase in total impurities at 40 C/30% RH). Type of data set: physicochemical. As to conditions: 15 days.
Data set [2] relates to Staphylococcus aureus ATCC 29213. The data set is described as follows: microbe, parasite or virus in culture. Type of data set: cell-based. As to conditions: Staphylococcus aureus, ATCC29213, Staphylococcus aureus ATCC 29213; Protocol 1; read-out: MIC.
In data set [3] the test system is M. tuberculosis Erdman ATCC 35801. In words: Mycobacterium tuberculosis serum shift MIC assay (Protocol 5). The format is cell-based.
Data set [4] in a line: Seven-day oral (gavage) toxicity and toxicokinetics study in rats. The format is in vivo, Crl:CD(SD) rats. As to conditions: for Mean food consumption: Compound 13 once daily 100 or 200 mg/kg, Compound 23A twice daily 300 mg/kg, different intervals of the study, not considered adverse; for adverse observations or effects on mean body weight / dose levels without adverse toxicity within the scope of the study / NOEL (No-Observable-Effect-Level) / exposures for different dosage levels: male rats; for adverse observations or effects on mean body weight / dose levels without adverse toxicity within the scope of the study: 7 days oral gavage; for NOEL (No-Observable-Effect-Level): once a day for 7 days orally via gavage; for exposures for different dosage levels: oral gavage, toxicokinetics; for histopathological findings: any dose regimen. An excerpt: Crl:CD(SD) rats were obtained from Charles River Laboratories of Stone Ridge, N.Y. The animals were laboratory bred and experimentally naïve. Rats were chosen because they are a species that is commonly used for nonclinical toxicity evaluations.
Forty rats (20 noncannulated males and 20 males with jugular vein cannulas) were ordered. From these animals, 15 noncannulated males and 15 cannulated males were used. Animals were as uniform in age as possible. The rats were prepubertal to young adult, approximately 9 weeks of age at initiation of dosing. Their supplier-calculated birth date was retained in the study records. The weight range for the animals at the time of allocation to groups was 218.5-306.3 g.
Animals received the test article or vehicle by oral gavage for 7 consecutive days and were terminated the day following completion of dosing. The first day of dosing was designated as Day 1 of the study. The animals were evaluated for changes in clinical signs, body weight, and other parameters as described below.
The vehicle and test article were administered by oral gavage once daily for 7 consecutive days at a dose volume of 10 mL/kg body weight for Group A and Groups B-D, respectively. The test article and vehicle were administered by oral gavage twice daily, approximately 8 hours apart, for 7 consecutive days at a dose volume of 10 mL/kg body weight for Group E and Group F, respectively. The actual volume administered to each animal was calculated and adjusted based on the most recent body weight of each animal.
During the treatment period, daily cageside observations were made and recorded predose and postdose (following the first dose only). The postdosing observations made during treatment occurred at the following times based on Cmax/Tmax for the two compounds from previous studies:
Prior to start of dosing, body weights were measured for randomization on Day 1. During the treatment, body weights were measured on Day 1 and Day 7. In addition, fasted body weights were measured prior to necropsy for calculation of organ/body weight ratios.
Throughout the study, food consumption was measured daily starting 3 days prior to start of dosing.
Blood samples for evaluation of hematology, coagulation, and serum chemistry parameters were collected from all animals from the retro-orbital plexus (under CO2/O2 anesthesia, for the main study animals) or jugular vein cannula (for the toxicokinetic animals) prior to necropsy. Due to residual heparin used to keep the cannulas patent for the toxicokinetic animals, coagulation samples from these rats, were not able to be analyzed. The animals were fasted overnight prior to blood collection. On the day of blood collection for clinical pathology analyses, the animals were not necropsied until after the blood was collected and the samples judged to be acceptable by the clinical pathology group.
On the 1st and 7th day of dosing, blood samples (approximately 0.5 mL/sample) were collected from the jugular vein cannula for all toxicokinetic animals at the timepoints listed below into K3EDTA-containing tubes. […] Prior to each collection, a small sample of blood (with heparin blocking solution) was removed from the cannula and discarded. A new syringe was placed on the cannula, and the protocol-required sample was taken. The syringe with the blood sample was removed, and a new syringe with saline attached to the cannula. Blood volume was replaced with an equal volume of saline and then blocking solution placed in the cannula. Each animal was returned to its cage until the next collection timepoint.
For all animals euthanized at scheduled necropsies, the kidneys, liver, and prostate gland were weighed. Following weighing, an approximate 1 gram sample of liver and kidney was weighed, transferred to Precellys 7 mL CK28 Tissue Homogenizing tubes (Cat. No. 0904-01), snap-frozen, and analyzed. […]

Data set [5] can be described thus: Oral range finding toxicity and toxicokinetic study in male Cynomolgus monkeys. The format is in vivo, Cynomolgus monkeys (Macaca Fascicularis). An excerpt: Cynomolgus monkeys (Macaca Fascicularis) were obtained from Primus Bio-Resources Inc. of PinCourt, Quebec, Canada. Cynomolgus monkeys were chosen because they are a non-rodent species that is commonly used for nonclinical toxicity evaluations.
Eight (2 naive and 6 non-naïve) males were used in the study. The animals were young adults and weighed between 2 to 4 kg at the onset of dosing.
The first day of dosing was designated as Day 1 of the study. The actual volume administered to each animal was calculated and adjusted based on the most recent body weight of each animal.
Cage-side clinical signs (ill health, behavioral changes etc.) were recorded at least once daily during the study.
Body weights were recorded for all animals prior to group assignment and on Days 1 (prior to dosing), 3 and 7 as well as terminally prior to necropsy (fasted).
Electrocardiograms (bipolar limb leads I, II and III, and augmented unipolar leads aVR, aVL and aVF) were obtained for all monkeys once during the pre-treatment period and again on Day 7 (post-dosing).
The tracings were assessed for gross changes indicative of cardiac electrical dysfunction. The potential presence of abnormalities involving heart rate (lead II), sinus and atrioventricular rhythm or conductivity were determined. Heart rate, PR interval, QRS duration, QT and QTc intervals values were measured.
A series of 7 blood samples (approximately 0.5 mL each) were collected from each monkey on Days 1 and 7 at the following time points: predose, 30 minutes and 2, 3, 6, 12 and 24 hours post-dose. For this purpose, each monkey was bled by venipuncture and the samples were collected into tubes containing the anticoagulant, K2EDTA. Tubes were placed on wet ice until ready for processing.
Laboratory investigations (hematology, coagulation, clinical chemistry and urinalysis) were performed on all animals prior to start of treatment and prior to termination on Day 8.
A necropsy with tissue collection was conducted on all animals terminated during the study. The necropsy included examination of:
For all animals, all tissues indicated above were embedded in paraffin, sectioned and stained with hematoxylin and eosin and examined by light microscopy.

The nature of data set [6]: Monkey oral pharmacokinetic study. As to conditions: 0.5% MC, plasma analyte. The format is in vivo, cynomolgus monkeys. From the text: (§1) Plasma concentration vs. time data was subjected to noncompartmental pharmacokinetic (PK) analysis.
Data set [7] is described as follows: Rat oral pharmacokinetic study. Type of data set: in vivo, Sprague Dawley rats. To be noted: 0.5% MC, plasma analyte.
Source text: as §1

The nature of data set [8]: Rat IV pharmacokinetic study. To be noted: D5W, plasma analyte.
Data set [9] in a line: Monkey IV pharmacokinetic study. As to conditions: Compound W IV 5 mg/kg, D5W, plasma analyte.
Procedure: Animals had free access to food and water before and after dosing.
Blood samples (approximately 0.25 mL each) were collected via a carotid artery catheter prior to dosing and at 0 (predose), 5 min, 10 min, 0.25, 0.5, 1, 2, 3, 4, 6, 8, 12, 24, 48 hours postdose. Each blood sample was collected into a tube that was kept on wet ice and contained potassium EDTA as the anticoagulant. Plasma was separated and stored at approximately −70° C. until analysis.
Plasma concentration vs. time data were subjected to noncompartmental pharmacokinetic (PK) analysis.
Data set [10] relates to M. tuberculosis ATCC 35801 (strain Erdman). The data set is described as follows: Mouse M. tuberculosis (Erdman) 28 day lung infection model. The format is in vivo, M. tuberculosis; host Balb/c mice. As to conditions: 28 days.
For a further data set, the system named is M. tuberculosis H37Rv. To be noted: cited from earlier work.
Where [11] appears, read: M. tuberculosis Erdman ATCC 35801.
Where [12] appears, read: M. tuberculosis Erdman ATCC 35801 with Mouse Serum.
Setting [13] is: doses up to 200 mg/kg/day, 7 days.
[14] abbreviates: rats, 300 mg/kg twice a day, compared to controls treated twice a day.
[15] abbreviates: Table 23a, 10 mg/kg BID oral gavage.
Where [16] appears, read: Table 23a, 30 mg/kg BID oral gavage.
[17] abbreviates: Table 23a, 100 mg/kg BID oral gavage.

In brackets after ≈: the same amount, converted by molar mass. Counter-ions that a name gives are not always drawn. Like-named read-outs stand apart in the source and are kept apart here.

In the case of `CCNC(=O)Nc1nc2cc(-c3cnc(C(C)(C)OP(=O)([O-])[O-])nc3)c(F)c([C@H]3CCCO3)c2[nH]1.[Na+].[Na+]` [Amorphous di-Na salt, disodium (R)-2-(5-(2-(3-ethylureido)-6-fluoro-7-(tetrahydrofuran-2-yl)-1H-benzo[d]imidazol-5-yl)pyrimidin-2-yl)propan-2-yl phosphate], the “Net % increase in total impurities” value in data set [1] is reported as 1.74%. The MIC in data set [2] was 4 µg/mL.
In the case of `CCNC(=O)Nc1nc2cc(-c3cnc(C(C)(C)O)nc3)cc([C@H]3CCCO3)c2[nH]1` [Compound 13, 1-ethyl-3-[5-[2-(1-hydroxy-1-methyl-ethyl)pyrimidin-5-yl]-7-[(2R)-tetrahydrofuran-2-yl]-1H-benzimidazol-2-yl]urea], in data set [3] (setting [11]), the MIC was 0.045 µg/mL. Further, the MIC in [3] (setting [12]) worked out at 2 µg/mL. In data set [4], the Mean food consumption result is “reduced”, the “adverse observations or effects on mean body weight” value is “No adverse observations or effects on mean body weight”, the “dose levels without adverse toxicity within the scope of the study” value is “up to 200 mg/kg/day” and the “NOEL (No-Observable-Effect-Level)” value worked out at 200 mg/kg. In addition, the “exposures for different dosage levels” value in data set [4] is “dose related”. Besides, the histopathological findings result in data set [4] (rats) was “No test article-related histopathological findings”.
For the compound `CCNC(=O)Nc1nc2cc(-c3cnc(C(C)(C)O)nc3)c(F)c([C@H]3CCCO3)c2[nH]1` [Compound 23, 1-ethyl-3-[6-fluoro-5-[2-(1-hydroxy-1-methyl-ethyl)pyrimidin-5-yl]-7-[(2R)-tetrahydrofuran-2-yl]-1H-benzimidazol-2-yl]urea], the “clinical signs, body weights, electrocardiography, clinical pathology, organ weights” value in data set [5] (setting [13]) is “no clinical signs, or changes in body weights, electrocardiography parameters, clinical pathology parameters, or organ weights”. For the same compound, in data set [5] (setting [13]), the “macroscopic or microscopic findings” value is “no macroscopic or microscopic findings”. In [5] (male Cynomolgus monkeys, oral gavage once per day for 7 days), the “no observed effect level (NOEL)” value was 200 mg/kg/day. Further, the “exposures for different dosage levels” value in data set [5] (male Cynomolgus monkeys, oral gavage, toxicokinetics) is “dose related”. For the same compound, the AUCextrap in data set [6] (Compound W PO 30 mg/kg) was 24800 ng·h/mL; in [6] (Compound W PO 100 mg/kg), 76900 ng·h/mL; in [6] (Compound W PO 300 mg/kg) it was 155000 ng·h/mL; in data set [7] (Compound W oral 3 mg/kg), 314 ng·h/mL; in data set [7] (Compound W oral 30 mg/kg), 22600 ng·h/mL; in data set [7] (Compound W oral 100 mg/kg) it was 77400 ng·h/mL. Further, the AUCextrap in data set [8] (Compound W IV 1 mg/kg) came out at 310 ng·h/mL; in [8] (Compound W IV 5 mg/kg) it was 3060 ng·h/mL; in data set [9] it was 3810 ng·h/mL. In addition, the Cl_obs amounted to 54.9 mL/min/kg in data set [8] (Compound W IV 1 mg/kg) and 27.3 mL/min/kg in data set [8] (Compound W IV 5 mg/kg). The Vss_obs is reported as 3.8 L/kg in data set [8] (Compound W IV 1 mg/kg) and 4.08 L/kg in [8] (Compound W IV 5 mg/kg). The t1/2 in data set [8] (Compound W IV 1 mg/kg) was determined as 1.8 h; in [8] (Compound W IV 5 mg/kg), 3.6 h.
As to `CCNC(=O)Nc1nc2cc(-c3cnc(C(C)(C)O)nc3)c(F)c([C@H]3CCCO3)c2[nH]1` [Compound 23A, methanesulfonic acid salt of 1-ethyl-3-[6-fluoro-5-[2-(1-hydroxy-1-methyl-ethyl)pyrimidin-5-yl]-7-[(2R)-tetrahydrofuran-2-yl]-1H-benzimidazol-2-yl]urea], the MIC in [3] (setting [11]) stood at 0.03 µg/mL. Also, the MIC in data set [3] (setting [12]) turned out to be 0.5 µg/mL. Besides, in [4], the Mean food consumption result is listed as “reduced”, the “adverse observations or effects on mean body weight” value is on record as “No adverse observations or effects on mean body weight”, the “dose levels without adverse toxicity within the scope of the study” value is recorded as not above 600 mg/kg/day and the “NOEL (No-Observable-Effect-Level)” value is 100 mg/kg. In data set [4], the “exposures for different dosage levels” value is on record as “dose related”. Moreover, in data set [4] (setting [14]), the AST result is “statistically higher”, the “mean ALT” value is recorded as “statistically higher” and the “mean calcium ion concentration (CA)” value is on record as “statistically lower”. For the same compound, the histopathological findings result in data set [4] (rats) is on record as “No test article-related histopathological findings”. Besides, in [10] (setting [15]), the “Average Lung Burden” value worked out at 5.08 Log cfu/lungs, the “Log Reduction vs. Early Control” value is reported as −0.10 Log and the “Log Reduction vs. Late Control” value came to 0.13 Log. Also, in [10] (setting [16]), the “Average Lung Burden” value was 4.11 Log cfu/lungs, the “Log Reduction vs. Early Control” value was 0.86 Log and the “Log Reduction vs. Late Control” value turned out to be 1.09 Log. Also, in data set [10] (setting [17]), the “Average Lung Burden” value worked out at 3.22 Log cfu/lungs, the “Log Reduction vs. Early Control” value turned out to be 1.76 Log and the “Log Reduction vs. Late Control” value came out at 1.98 Log. For the same compound, the “reduction of bacterial burdens versus the early control” value in [10] (doses of 30 and 100 mg/kg) is 0.7-1.5 logs.
Consider `COc1c(N2C[C@@H]3CCCN[C@@H]3C2)c(F)cc2c(=O)c(C(=O)O)cn(C3CC3)c12` [Moxifloxacin, reference compound], for which, in data set [10] (Table 23a, 100 mg/kg QD), the “Average Lung Burden” value is reported as 2.94 Log cfu/lungs, the “Log Reduction vs. Early Control” value came to 2.04 Log and the “Log Reduction vs. Late Control” value is 2.26 Log. In data set [10] (Table 23b, 100 mg/kg QD), the “Log Reduction vs. Early Control” value was 2.04 Log, the “Log Reduction vs. Late Control” value was 1.42 Log and the “Median Lung Burden” value turned out to be 2.94 Log cfu/lungs.
`NC(=O)c1cnccn1` [Pyrazinamide]: the MIC in the data set on M. tuberculosis H37Rv (normal pH) was 250 µg/mL (≈ 2030 µM); with M. tuberculosis H37Rv (pH 6.0), 50 µg/mL (≈ 406 µM).

(Values after US9018216B2, “Solid forms of (R)-2-(5-(2-(3-ethylureido)-6-fluoro-7-(tetrahydrofuran-2-yl)-1H-benzo[d]imidazol-5-yl)pyrimidin-2-yl)propan-2-yl dihydrogen phosphate and salts thereof” (priority 2012, dated 2015).)
